Results as given in patent US20080015260A1, “Pharmaceutical compositions having improved stability and methods for preparation and use” (Kiel Laboratories, Inc., priority 2006, published 2008).
Where a name gives a salt, the structure may show the parent alone.

Assay: Conversion of API to insoluble tannate complex in reaction mixtures (centrifugation, % converted insoluble)
Format: physicochemical
Conditions: for conversion to the tannate complex at reduced Neusilin® levels: ½ (4.4 wt%) and ¼ (2.2 wt%) Neusilin®
Description: The following example is a series of reaction mixtures for suspension formulations containing phenylephrine HCl, tannic acid and MAS or various concentrations of Neusilin®:
Analysis of the above suspensions was carried out by removing 10 gms of product and centrifuging. The amount of API found in the insoluble portion of the suspension was reported as the % converted insoluble and the liquid portion as the % converted soluble.
Analysis of the above suspension was carried out by removing 10 gms of product and centrifuging. The amount of API found in the insoluble portion of the suspension was reported as the % converted insoluble and the liquid portion as the % converted soluble.

conversion to the tannate complex at reduced Neusilin® levels | increase in conversion to the tannate complex with Neusilin® in the suspension (Neusilin® 8.7 wt% versus MAS 8.7 wt%, FIG. 1) | SMILES | effect of Neusilin® on level of conversion to the tannate complex compared to MAS (Neusilin® versus MAS, FIG. 2, FIG. 3)
same level of conversion |  | CCN(CC)CCOCCOC(=O)C1(c2ccccc2)CCCC1 [carbetapentane, Carbetapentane Citrate] | does not significantly affect the level of conversion
same increase in conversion | > 30% | CNC[C@H](O)c1cccc(O)c1 [phenylephrine, Phenylephrine HCl] | 
